Data published in patent US6444850B1, “Fungicidial compounds having a fluorovinyloxphyenyl moiety and process for the preparation thereof” (priority 1997, dated 2002).

Columns and labels:
[1] = system: Botrytis cinerae; assay: Fungicidal activity against cucumber gray mold rot (CGM) disease; format: in vivo; details: 50 ppm, control value
Procedure: Botrytis cinerae, which was isolated from cucumber infected thereby, was inoculated on a PDA agar medium and cultured under a 12L/12D cycle at 25° C. for 15 days to form spore. The spores were scraped, filtered through a gauze and then suspended in potato dextrose liquid medium at a concentration of 1×10^6 spore/ml. The spore suspension was sprayed on a cucumber plant having one leaf. The cucumber plant was held in a humidified room at 20° C. for 3 days. L.A. on a leaf was measured to calculate an C.V.

[2] = system: Erysiphae graminis; assay: Fungicidal activity against barley powdery mildew (BPM) disease; format: in vivo; details: for C. V. (%), Fungicidal activities against TLB at 10 ppm: Table 9 (Test Example 6); for C. V. (%) BPM: 50 ppm, control value, barley powdery mildew
Procedure: Erysiphae graminis was subcultured on a wheat plant in a laboratory. 15 g of barley seeds was sowed in a pot (diameter 6.5 cm) and cultured in a greenhouse for 7 days to obtain a barley plant having only a primary leaf. The barley plant was inoculated with spores by shaking thereover another plant infected by BPM. The inoculated barley plant was cultured in an incubator maintained at a temperature of 22 to 24° C. and a relative humidity of 50% for 7 days to induce BPM. L.A. on the leaf was measured to calculate an C.V.

[3] = system: Phytophthora infestans; format: in vivo; details: 50 ppm; control value, tomato late blight
[4] = system: Rhizoctonia solani AG-1; assay: Fungicidal activity against rice sheath blight (RSB) disease; details: 50 ppm, control value
[5] = system: Pyricularia oryzae Carvara KA301; format: in vivo; details: for C. V. (%) Fungicidal Activities against RCB at 10 ppm / C. V. (%) Fungicidal Activities against RCB at 10 ppm (TABLE 6): sprayed on Nakdong rice plant, control value from lesion area; for C. V. (%) RCB: 50 ppm, control value, rice blast
[6] = system: Puccinia recondita; assay: Fungicidal activity against wheat leaf rust (WLR) disease; format: in vivo; details: for C. V. (%), Fungicidal Activities against WLB at 10 ppm: Table 8 (Test Example 5); for C. V. (%) WLR: 50 ppm, control value, wheat leaf rust

Row | SMILES | C. V. (%) CGM [1] | C. V. (%), Fungicidal activities against TLB at 10 ppm [2] | C. V. (%) BPM [2] | C. V. (%) TLB [3] | C. V. (%) RSB [4] | C. V. (%) Fungicidal Activities against RCB at 10 ppm [5] | C. V. (%) Fungicidal Activities against RCB at 10 ppm (TABLE 6) [5] | C. V. (%) RCB [5] | C. V. (%), Fungicidal Activities against WLB at 10 ppm [6] | C. V. (%) WLR [6]
1 | CNC(=O)C(=NOC)c1ccccc1COc1cccc(OC(F)=C(c2cccc(F)c2)C(F)(F)F)c1 [Compound 95] | 0% | 100% | 100% | 0% | 72% | 100% | 100% | 100% | 100% | 100%
2 | COC=C(C(=O)OC)c1ccccc1COc1cccc(OC(F)=C(c2ccc(C)c(C)c2)C(F)(F)F)c1 [Compound 63] | 25% | 100% | 100% | 25% | 40% | – | – | 75% | – | 100%
3 | CO/N=C(/C(=O)OC)c1ccccc1COc1cccc(OC(F)=C(c2ccc(C)c(C)c2)C(F)(F)F)c1 [Compound 65] | 16% | 94% | 99% | 33% | 90% | – | – | 91% | 100% | 99%
4 | COC(=O)C(=CSC)c1ccccc1COc1cccc(OC(F)=Cc2ccccc2)c1 [Compound 4] | 33% | – | 91% | 86% | 75% | – | – | 90% | – | 85%
5 | CNC(=O)C(=NOC)c1ccccc1COc1cccc(OC(F)=C(c2ccc(F)cc2)C(F)(F)F)c1 [Compound 99] | 21% | 100% | 100% | 48% | 90% | 95% | 95% | 80% | 100% | 100%
6 | CCOc1ccc(C(=C(F)Oc2cccc(OCc3ccccc3C(=NOC)C(=O)OC)c2)C(F)(F)F)cc1 [Compound 79] | 7% | 99% | 100% | 18% | 55% | – | – | 0% | 96% | 100%
7 | COC=C(C(=O)OC)c1ccccc1COc1cccc(OC(F)=Cc2ccc(C)c(C)c2)c1 [Compound 13] | 58% | 99% | 100% | 85% | 50% | 97% | 97% | 97% | 95% | 98%
8 | CON=C(C(=O)OC)c1ccccc1COc1cccc(OC(F)=Cc2ccccc2)c1 [Compound 3] | 15% | – | 41% | 70% | 70% | – | – | 100% | – | 93%
9 | CON=C(C(=O)OC)c1ccccc1COc1cccc(OC(F)=Cc2cccc(C)c2)c1 [Compound 8] | 51% | 93% | 97% | 92% | 92% | 90% | 90% | 100% | 90% | 98%
10 | COC=C(C(=O)OC)c1ccccc1COc1cccc(OC(F)=Cc2cc(C)cc(C)c2)c1 [Compound 17] | 50% | – | 99% | 81% | 60% | 95% | 95% | 90% | 99% | 100%
11 | CNC(=O)C(=COC)c1ccccc1COc1cccc(OC(F)=Cc2ccc(C)cc2)c1 [Compound 11] | 15% | – | 25% | 20% | 5% | – | – | 16% | – | 43%
12 | CNC(=O)/C(=C/OC)c1ccccc1COc1cccc(OC(F)=Cc2ccccc2)c1 [Compound 2, (2E)-N-methyl-3-methoxy-2-{2′-{3″-(2′″-fluorostyryl)-2′″-oxy}phenoxymethyl}phenyl-2-propenamide] | 84% | – | 86% | 74% | 50% | – | – | 100% | – | 96%
13 | CON=C(C(=O)OC)c1ccccc1COc1cccc(OC(F)=C(c2ccc(OC)cc2)C(F)(F)F)c1 [Compound 76] | 0% | 96% | 99% | 44% | 90% | – | – | 63% | 99% | 96%
14 | CO/C=C(/C(=O)OC)c1ccccc1COc1cccc(OC(F)=C(c2cc(C)cc(C)c2)C(F)(F)F)c1 [Compound 67] | 16% | 100% | 100% | 25% | 50% | – | – | 80% | – | 100%
15 | COC(=O)C(=CSC)c1ccccc1COc1cccc(OC(F)=Cc2cccc(C)c2)c1 [Compound 9] | 33% | – | 95% | 26% | 92% | – | – | 96% | – | 88%
16 | CCCCCCC(=C(F)Oc1cccc(OCc2ccccc2C(=COC)C(=O)OC)c1)C(F)(F)F [Compound 106] | 0% | 100% | 100% | 0% | 45% | – | – | 0% | 91% | 98%
17 | CNC(=O)C(=COC)c1ccccc1COc1cccc(OC(F)=Cc2ccc(OC)cc2)c1 [Compound 30] | 28% | – | 16% | 6% | 5% | – | – | 93% | – | 0%
18 | COC=C(C(=O)OC)c1ccccc1COc1cccc(OC(F)=C(c2cccc(Cl)c2)C(F)(F)F)c1 [Compound 84] | 16% | 100% | 100% | 81% | 25% | 95% | 95% | 90% | 97% | 100%
